Columns and labels:
[1] = test system: male and female CD-1 mice; test: Tail flick thermal latency test (antinociception); format: in vivo; conditions: Fig. S1; for tail flick antinociception (efficacy in words): terpenes 50–200 mg/kg i.p. (β-Caryophyllene 100 mg/kg), WIN55,212-2 up to 10 mg/kg, over 2 h
Protocol: Antinociception was tested using the tail flick thermal latency test. Mice were baselined by gently restraining the animal and lowering the distal portion of the tail into a water bath set to 52 °C or 47 °C where stated, and the latency to flick the tail recorded with a stopwatch, with a 10 s cutoff. Mice were then injected with compounds intraperitoneally (i.p.). Thermal latency was then assessed over a time course of 2 h, or at a single time-point as noted. […] For assays using terpene/WIN55,212-2 co-treatment, WIN55,212-2 was co-administered with terpene in the same solution.

[2] = test system: male and female CD-1 mice; test: Hypothermia (core temperature, rectal thermometer); format: in vivo; conditions: for hypothermia vs baseline: 30 min after i.p. 200 mg/kg terpene or 5.6 mg/kg WIN55,212-2, Fig. S2A
Protocol: Changes in core temperature were assessed using a lubricated rectal thermometer placed 1.0 cm into the mouse rectum. Temperature was assessed before treatment and 30 min post-treatment.

[3] = test system: male and female CD-1 mice; test: Catalepsy ring test; format: in vivo; conditions: for catalepsy vs baseline: 15 min after i.p. 200 mg/kg terpene or 5.6 mg/kg WIN55,212-2, Fig. S2B
Protocol: Potential induction of catalepsy was assessed using the ring test as described. Mice were baselined, injected with compound, and then assessed with the ring test at 15 min post-injection. Data was represented as the percentage (%) of time in a “cataleptic” immobile state over the 5 min observation period.

WT CHO cells = test: ERK phosphorylation (Western) in WT CHO cells; format: cell-based; conditions: for ERK phosphorylation in WT CHO cells: 500 μM terpene or 10 μM WIN55,212-2, 5 min, Fig. 7B
Protocol: WT-CHO cells were obtained from ATCC (#CCL-61). CHO cells stably expressing the human CB1 receptor were obtained from PerkinElmer (#ES-110-C) and utilized for western blots (CB1-CHO-C2) or binding assays (CB1-CHO-C3). HitHunter (CB1-CHO-cAMP) and PathHunter (CB-CHO-βarr2) assays were performed on respective CB1-CHO lines, and were a kind gift from Dr. Robert Laprairie[44]. CHO cells stably expressing cloned CB2 (CB2-CHO) were produced by electroporation with the human CB2 N-3xHA tag cDNA (GeneCopoeia). A stable expressing population was selected for with 500 μg/mL G418. CHO cells stably expressing the human mu opioid receptor were obtained from PerkinElmer (#ES-542-C). All cells were grown on 10 cm dishes in DMEM/F-12 50/50 mix w/ L-glutamine and 15 mM HEPES (Corning) containing 10% heat-inactivated fetal bovine serum, 100 units/mL penicillin, 100 units/mL streptomycin, and 400 μg/mL G418 (CB1-CHO-C2, CB1-CHO-C3, CB2-CHO, MOR-CHO); 800 μg/mL G418 (CB1-CHO-cAMP); 800 μg/mL G418 and 300 μg/mL hygromycin B (CB1-CHO-βarr2). WT CHO were grown as stated above without selection antibiotic. Cells were incubated in a humidified incubator at 37 °C with 5% CO2 and were sub-cultured every 2–3 days.
Cells were plated in 6-well plates 24 h prior to the start of the experiments. Cells were serum starved for 1 h then treated for 5 min with compound. In antagonist experiments, cells were pretreated for 5 min before agonist treatment for 5 min. Media was then aspirated, cells were placed on ice, washed with ice-cold PBS once, and lysis buffer (20 mM Tris–HCl, pH 7.4, 150 mM NaCl, 2 mM EDTA, 0.1% SDS, 1% Nonidet P-40, 0.25% deoxycholate, 1 mM sodium orthovanadate, 1 mM PMSF, 1 mM sodium fluoride, and a protease inhibitor cocktail (EMD Millipore)), was added. Cells were scraped and collected. Lysates were vortexed then centrifuged at 13 k rpm at 4 °C for 10 min. Lysates were then processed for Western blots or stored at − 80 °C.
Cell lysate protein was quantified with a modified BCA protein assay using manufacturers protocol (Bio-Rad). Samples (20–30 μg) were ran on precast gels (10% Bis–Tris, Bolt brand, from ThermoFisher). Gels were wet-transferred to nitrocellulose membranes at 30 V for at least 60 min at 4 °C. Blots were blocked with 5% non-fat dry milk in TBS for 30 min, washed 3 × for 5 min with TBS + 0.1% Tween-20 (TBST), and incubated with primary antibody overnight at 4 °C. Primary antibody: pERK and tERK (Cell Signaling) at 1:1000 dilution in 5% BSA in TBST. Blots were then washed 3 × with TBST then incubated with secondary antibodies for 90 min at room temperature. Secondary antibodies: Goat anti-Rabbit 800 W and Goat anti-Mouse 680 diluted at 1:10,000 and 1:20,000 (Licor), respectively, in 5% non-fat milk in TBST. Blots were washed 3X with TBST and 1 × with TBS, then imaged on a Licor Odyssey Fc or Azure Sapphire. Bands were analyzed using Image-J and reported as pERK/tERK normalized to the standard, or simply as pERK/tERK.

human mu opioid receptor = target: T1, human mu opioid receptor (Homo sapiens, UniProt P35372); format: cell-based; conditions: 500 μM terpene or 10 μM morphine, 5 min, Fig. S13A
T1 construct: host or cells: CHO (MOR-CHO)
Protocol: Cells were plated in 6-well plates 24 h prior to the start of the experiments. Cells were serum starved for 1 h then treated for 5 min with compound. In antagonist experiments, cells were pretreated for 5 min before agonist treatment for 5 min. […] Cells were scraped and collected. Lysates were vortexed then centrifuged at 13 k rpm at 4 °C for 10 min. Lysates were then processed for Western blots or stored at − 80 °C.
CHO cells were serum starved for 1 hr, then treated with Vehicle, 10 μM morphine, or 500
μM terpene for 5 min. ERK was quantitated and reported as above. Data expressed as the
vs. Vehicle group by 1 Way ANOVA with Dunnett’s post hoc test. B) MOR-CHO cells
serum starved for 1 hr, then pre-treated with Vehicle or 10 μM naloxone for 10 min, then
treated with Vehicle, 10 μM morphine, or 500 μM terpene for 5 min. ERK quantitated,
reported, and normalized as in A (n=3 independent experiments). *, **** = p < 0.05,
0.0001 vs. terpene-alone group for each set by 1 Way ANOVA with Sidak’s post hoc test
(set up as pairwise comparisons between terpene and terpene + naloxone for each set). For
both, representative blots are shown below each graph.

CB1 [4] = target: T2, CB1 (Homo sapiens, UniProt P21554); test: biochemical; format: binding; conditions: CB1-CHO membranes; for competition for the orthosteric binding site against CP55,940: Fig. 8A
[5] = test system: male and female CD-1 mice; test: Open field test (hypolocomotion); conditions: for locomotor activity vs baseline / distance traveled and mobile time, experiment without baseline recording: 200 mg/kg terpene or 5.6 mg/kg WIN55,212-2 i.p.; for locomotor activity vs baseline: compared to baseline values, Fig. S2C,D, confounded by habituation; for distance traveled and mobile time, experiment without baseline recording: vs Vehicle, Fig. S3A,B
Protocol: All experiments were performed on male and female CD-1 (a.k.a. ICR) mice obtained from Charles River in age-matched cohorts of 5–6 weeks of age. […] The animals were maintained in an AAALAC-accredited vivarium at the University of Arizona in temperature and humidity-controlled rooms on a 12-h light/dark cycle. Standard chow and water were available ad libitum. […] Mice were randomized to treatment group by randomization of mice to cages upon arrival, and block random assignment of cages to treatment group. The experimenter was blinded to treatment group by the delivery of coded drug vials. The groups were not decoded until all data had been acquired.
The open field test was used to determine potential hypolocomotive properties induced by terpene and cannabinoid treatment. The open field box was a white box with an open top and black floor. The tracking area was 30 cm × 28 cm. Mice were baselined by placing the mouse in the center of the box and recording from a video camera ~ 1.5 m above for a period of 5 min. Mice were then injected with compound and placed back in the open field box 10–15 min post-injection. In follow-up experiments, mice were not baselined, injected with compound, and placed in the open field box from 10 to 15 min. The total distance traveled and mobile time of mice were analyzed using AnyMaze software.

CB1 [6] = target: T2, CB1; format: cell-based; set-up: expressed in transfected cells; host or cells: CHO (CB1-CHO-βarr2 / CB1-CHO-DX), gift from Dr. Robert Laprairie; conditions: Fig. S14C
[7] = test system: male and female CD-1 mice; test: Cannabinoid tetrad of behaviors (antinociception, hypolocomotion, catalepsy, hypothermia); format: in vivo
From the text: Our first set of experiments sought to determine whether selected terpenes/terpenoids (α-Humulene, β-Pinene, Linalool [terpenoid], Geraniol [terpenoid], and β-Caryophyllene as a putative cannabinoid receptor type 2 [CB2] agonist control) had activity in the cannabinoid tetrad of behaviors mediated by the CB1 receptor: antinociception, hypolocomotion, catalepsy, and hypothermia. These terpenes were selected based on their quantities in Cannabis sativa, with α-Humulene, β-Pinene, Linalool, and β-Caryophyllene all being found in higher quantities and Geraniol in lower to underdetermined quantities. Although it is not clear if geraniol is present in higher quantities, we nonetheless chose this ligand due to its reported anti-nociceptive activity (e.g.[22]). Terpenes were administered at several doses (50–200 mg/kg) i.p. and assessed in the tail flick assay in male and female CD-1 mice. […]
Antinociception was tested using the tail flick thermal latency test. Mice were baselined by gently restraining the animal and lowering the distal portion of the tail into a water bath set to 52 °C or 47 °C where stated, and the latency to flick the tail recorded with a stopwatch, with a 10 s cutoff. […] Thermal latency was then assessed over a time course of 2 h, or at a single time-point as noted. […]
Potential induction of catalepsy was assessed using the ring test as described. […]

CB1 [8] = target: T2, CB1; format: cell-based; conditions: varying concentrations, 5 min, Fig. 6
Protocol: WT-CHO cells were obtained from ATCC (#CCL-61). […] CHO cells stably expressing cloned CB2 (CB2-CHO) were produced by electroporation with the human CB2 N-3xHA tag cDNA (GeneCopoeia). A stable expressing population was selected for with 500 μg/mL G418. […] All cells were grown on 10 cm dishes in DMEM/F-12 50/50 mix w/ L-glutamine and 15 mM HEPES (Corning) containing 10% heat-inactivated fetal bovine serum, 100 units/mL penicillin, 100 units/mL streptomycin, and 400 μg/mL G418 (CB1-CHO-C2, CB1-CHO-C3, CB2-CHO, MOR-CHO); 800 μg/mL G418 (CB1-CHO-cAMP); 800 μg/mL G418 and 300 μg/mL hygromycin B (CB1-CHO-βarr2). WT CHO were grown as stated above without selection antibiotic. Cells were incubated in a humidified incubator at 37 °C with 5% CO2 and were sub-cultured every 2–3 days.
Cells were plated in 6-well plates 24 h prior to the start of the experiments. Cells were serum starved for 1 h then treated for 5 min with compound. In antagonist experiments, cells were pretreated for 5 min before agonist treatment for 5 min. […] Cells were scraped and collected. Lysates were vortexed then centrifuged at 13 k rpm at 4 °C for 10 min. […]
Cell lysate protein was quantified with a modified BCA protein assay using manufacturers protocol (Bio-Rad). […] Bands were analyzed using Image-J and reported as pERK/tERK normalized to the standard, or simply as pERK/tERK.

T2 sequence (P21554 whole entry): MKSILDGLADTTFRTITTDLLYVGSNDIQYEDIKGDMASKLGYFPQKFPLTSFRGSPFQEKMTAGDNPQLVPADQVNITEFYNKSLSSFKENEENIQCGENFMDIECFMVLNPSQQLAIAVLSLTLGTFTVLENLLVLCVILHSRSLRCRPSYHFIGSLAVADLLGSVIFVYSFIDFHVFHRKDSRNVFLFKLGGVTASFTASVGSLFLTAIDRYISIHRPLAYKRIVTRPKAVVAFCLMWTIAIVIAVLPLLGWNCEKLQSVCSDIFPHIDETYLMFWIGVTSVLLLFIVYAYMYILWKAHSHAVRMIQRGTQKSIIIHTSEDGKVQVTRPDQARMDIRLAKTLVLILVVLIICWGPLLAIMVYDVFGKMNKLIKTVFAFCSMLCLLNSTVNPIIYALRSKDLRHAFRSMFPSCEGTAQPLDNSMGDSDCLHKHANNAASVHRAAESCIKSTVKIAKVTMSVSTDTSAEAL
T1 sequence (P35372 whole entry): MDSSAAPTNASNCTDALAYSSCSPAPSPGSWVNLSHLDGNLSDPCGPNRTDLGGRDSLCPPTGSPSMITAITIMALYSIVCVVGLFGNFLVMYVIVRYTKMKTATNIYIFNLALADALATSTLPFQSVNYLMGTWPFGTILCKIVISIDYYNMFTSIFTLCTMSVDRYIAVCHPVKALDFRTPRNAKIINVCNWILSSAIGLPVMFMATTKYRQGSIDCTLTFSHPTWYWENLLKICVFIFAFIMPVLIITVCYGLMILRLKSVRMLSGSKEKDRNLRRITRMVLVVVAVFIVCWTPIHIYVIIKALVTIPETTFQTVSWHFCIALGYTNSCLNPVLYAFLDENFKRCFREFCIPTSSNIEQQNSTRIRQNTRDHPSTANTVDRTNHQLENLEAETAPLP

CC(C)=CCC/C(C)=C/CO [Geraniol]
efficacy in the tail flick assay ([1]; terpene 50–200 mg/kg i.p., dose-dependent): 40–50%
hypothermia vs baseline [2]: induced significant hypothermia
effect of istradefyllene pretreatment on catalepsy response ([3]; 10 mg/kg istradefyllene, 200 mg/kg terpene, Fig. 4): partially blocked
effect of rimonabant pretreatment on catalepsy response ([3]; 10 mg/kg rimonabant, 200 mg/kg terpene, Fig. 4): no impact
catalepsy vs baseline [3]: significant increases in cataleptic behavior
ERK phosphorylation in WT CHO cells (WT CHO cells): did not cause ERK phosphorylation
ERK stimulation in MOR-CHO cells (human mu opioid receptor): no response
competition for the orthosteric binding site against CP55,940 (CB1 [4]): full competition
IC50 (CB1 [4]; mean (95% CI), n = 5, Fig. 8A, read-out: IC50, competition binding against 3H-CP55,940): 44.2 µM
effect of istradefyllene pretreatment on mobile time ([5]; 10 mg/kg istradefyllene, 200 mg/kg terpene, Fig. 5): significant reversal
effect of istradefyllene pretreatment on distance traveled ([5]; 10 mg/kg istradefyllene, 200 mg/kg terpene, Fig. S7): istradefyllene reversal
locomotor activity vs baseline [5]: significant reductions in locomotor activity
distance traveled and mobile time, experiment without baseline recording [5]: reductions in distance traveled and mobile time
effect of a full dose-range of Geraniol on WIN55,212-2 βarrestin2 recruitment (CB1 [6]): dose-dependent reductions in WIN55,212-2 recruitment

Cc1c(C(=O)c2cccc3ccccc23)c2cccc3c2n1[C@H](CN1CCOCC1)CO3 [WIN55,212-2, reference compound]
tail flick antinociception (efficacy in words) [1]: dose-dependent increases in thermal latency with greater efficacy than any of the tested compounds
effect of rimonabant pretreatment on hypothermia ([2]; 10 mg/kg rimonabant, 200 mg/kg terpene or 5.6 mg/kg WIN55,212-2, Fig. 3, S4C): only partially reversed
hypothermia vs baseline [2]: induced significant hypothermia
catalepsy vs baseline [3]: significant increases in cataleptic behavior
ERK phosphorylation in WT CHO cells (WT CHO cells): did not cause ERK phosphorylation
effect of rimonabant on tetrad behaviors induced by the agonist ([7]; 5.6 mg/kg WIN55,212-2 after 10 mg/kg rimonabant i.p., Fig. S4): fully or partially reverse
locomotor activity vs baseline [5]: significant reductions in locomotor activity
distance traveled and mobile time, experiment without baseline recording [5]: reductions in distance traveled and mobile time

C=C1CC/C=C(\C)CC[C@@H]2[C@@H]1CC2(C)C [β-Caryophyllene, reference compound]
tail flick antinociception (efficacy in words) [1]: low efficacy
hypothermia vs baseline [2]: did not induce
catalepsy vs baseline [3]: did not induce
ERK activation in CB1-CHO cells (CB1 [8]): activated downstream ERK signaling
rimonabant sensitivity of ERK activation in WT CHO cells (WT CHO cells; 500 μM terpene after 10 μM rimonabant, Fig. 7C): rimonabant-insensitive
ERK phosphorylation in WT CHO cells (WT CHO cells): activated ERK
ERK stimulation in MOR-CHO cells (human mu opioid receptor): produced ERK stimulation
competition for the orthosteric binding site against CP55,940 (CB1 [4]): some competition and semi-biphasic properties
number of classic cannabinoid tetrad behaviors induced (out of 4) ([7]; 200 mg/kg terpene i.p. (β-Caryophyllene control)): did not
distance traveled and mobile time, experiment without baseline recording [5]: did not result in significant reductions
